{"source": "patent US20170276668A1", "about": "“NEURAL MICROPHYSIOLOGICAL SYSTEMS AND METHODS OF USING THE SAME” (The Administrators of the Tulane Educational Fund, priority 2014, published 2017)", "key": {"[1]": {"tested_on": "DRG/Schwann cell co-culture", "assay": "DRG/SC three-dimensional co-culture: neurite growth and myelin formation (immunohistochemistry, confocal)", "assay_type": "cell-based, rat", "description": "The dual hydrogel culture system was fabricated using a digital projection photolithography, as described above. A schematic of the process is seen in FIG. 13. In brief, a photolithography apparatus comprised of a collimated UV light source (OmniCure 1000 with 320-500 nm filter, EXFO, Quebec, Canada) and a visible light source (SOLA light engine with […] filter, Lumencor, Oreg., USA), a digital micromirror device (DMD) (Discovery™ 3000, Texas Instruments, Dallas, Tex.) as a dynamic photomask and a 2× Plan Fluor objective lens (Nikon Instruments, Tokyo, Japan) were utilized to irradiate the photocurable hydrogel solution that was contained in a permeable cell culture insert with 0.4 μm pore size. The inserts were either collagen-coated PTFE Transwell® Permeable Support or Transwell™ Clear Polyester Membrane Inserts (Corning Inc., Corning, N.Y., USA) to investigate the influence of collagenated substrates on SC/neuron incorporation. The dual hydrogel system consists of two compartments: a cell permissive section that contains neurons and a cell restrictive section that acts as a hydrogel mold. In order to make the cell restrictive section, a solution of 10% (w/v) PEG-diacrylate (Mn 1000; Polysciences Inc., Warrington, Pa.) and 0.5% (w/v) Irgacure 2959 in PBS was irradiated with 85 mW/cm2 UV light as measured by a radiometer (306 UV Powermeter, Optical Associates, San Jose, Calif.), for 38 seconds to make a PEG micromold, shown in FIG. 13. The cell culture insert was treated with filtered Rain-X® Original Glass Treatment (RainX, Houston, Tex.) prior to addition of the gel solution in order to avoid meniscus behavior. 0.5 ml of solution was added to each 6-well plate insert. Addition of 0.5 ml solution results in a gel thickness of 480 μm. Hydrogel constructs were washed in DPBS with 1% antibiotic-antimycotic additive to inhibit contamination.\nAs the first step of the co-culture, the primary tissue culture was performed. The PEG constructs were prepared and immersed in the adhesion media and incubated (37° C., 5% C02) overnight prior to the tissue culture. The adhesion media was comprised of Neurobasal medium supplemented with B27 (2% v/v), L-glutamine (0.25% v/v), nerve growth factor (NGF) (0.02 μg/ml), fetal bovine serum (FBS) (10% v/v/) and penicillin/streptomycin (1% v/v) (all from Life Technologies, CA). The constructs were then cultured with Long Evans rat embryo dorsal root ganglion (DRG) tissue, in keeping with the guidelines of the Institutional Animal Care and Use Committee. The DRGs were isolated from embryonic day 15 rat embryos and trimmed prior to the culture. A single DRG explant was placed in each construct. The DRGs were then incubated in fresh adhesion media overnight to allow the tissue to adhere to the insert\nThe SCs were dispersed in 50% MeDex solution in SC medium as described above to reach a cell count of 20×10^6 cell/mL. In order to achieve an evenly distributed single cell solution, the gel mixture was pipetted up and down vigorously. The adhesion medium was aspirated from the channels gently to avoid disturbing the adhered DRGs and 2 μL of the MeDex single cell solution was added to each PEG micromold. A negative photomask was loaded on the DMD and the gel solution in the channel was crosslinked with 85 mW/cm^2 visible light as measured by a radiometer (306 UV Powermeter, Optical Associates, San Jose, Calif.) after 30 seconds of irradiation using a visible light source (SOLA light engine with 375-650 nm filter, Lumencor, Oreg., USA). The constructs were gently washed using the wash buffer described above three times.\nIn order to understand the influence of various media regimens on the behavior of DRGs and SCs in a three-dimensional co-culture, two different culture systems were applied. The culture systems are described in Table 2. Culture System 1 has two phases where Media 1 (10 days) and 2 (15 days) are applied in that order. […]"}, "[2]": {"tested_on": "DRG explants in dual hydrogel constructs", "assay_type": "cell-based, rat", "details": "for response duration before (t1-t5) vs after (t16-t20) drug wash-in / response amplitude before (t1-t5) vs after (t16-t20) drug wash-in: 20 μM DNQX and 50 μM APV applied together; for response duration before (t1-t5) vs after (t16-t20) drug wash-in: n=4, at half-peak; for response amplitude before (t1-t5) vs after (t16-t20) drug wash-in: n=4, peak-to-peak"}, "[3]": {"tested_on": "neuronal cell death in vitro", "details": "cited from earlier work"}, "DRG neurites": {"tested_on": "DRG neurites", "assay": "DRG neurite growth toward a factor diffusing from a reservoir in the hydrogel construct", "assay_type": "cell-based", "details": "NGF vs BSA diffusing from a reservoir, FIG. 28"}, "Retinal explants": {"tested_on": "Retinal explants", "assay": "Retinal explant culture in 3D micropatterned hydrogels", "assay_type": "cell-based, rat", "details": "neurobasal Sato medium supplemented with the factor, one week, β-III tubulin", "protocol": "Work and experimental data for the dorsal root ganglia model is presented in the present disclosure. For a central nervous system model, the growth of retinal explants has also been explored. FIGS. 27A-27B depict a culture of retinal (CNS) tissue. Retinal explants from embryonic rats were cultured within 3D micropatterned hydrogels in “neurobasal Sato” medium supplemented with either ciliary neurotrophic factor CNTF ([…]) or brain-derived neurotrophic factor BDNF ([…])."}}, "note": "Entries after “also recorded” stand apart in the source; their conditions may differ."}
{"molecule": "O=C1O[C@H]([C@@H](O)CO)C(O)=C1O", "note": "[AA, L-ascorbic acid]", "values": [{"measurement": "amount of myelin", "setting": "[1]; 25 days of media containing AA (NCol-25, Col-25)", "result": "considerable increase"}, {"measurement": "ratio of myelin to neuronal growth (percentage of myelin)", "setting": "[1]; longer exposures to AA, MBP, MAG, PO stains", "result": "increases"}]}
{"molecule": "N[C@H](CCCP(=O)(O)O)C(=O)O", "note": "[APV, (2R)-amino-5-phosphonopentanoate]", "values": [{"measurement": "response duration before (t1-t5) vs after (t16-t20) drug wash-in", "setting": "[2]", "result": "no statistically significant difference; also recorded: no marked change"}, {"measurement": "response amplitude before (t1-t5) vs after (t16-t20) drug wash-in", "setting": "[2]", "result": "no statistically significant difference; also recorded: no marked change"}]}
{"molecule": "CC(C)C[C@H](NC(=O)[C@H](Cc1ccccc1)NC(=O)c1cnccn1)B(O)O", "note": "[Bortezomib]", "values": [{"measurement": "Neurotoxic dose", "setting": "[3]", "result": 0.02, "unit": "µM"}]}
{"molecule": "O=C1N=c2cc([N+](=O)[O-])c([N+](=O)[O-])cc2=NC1=O", "note": "[DNQX, 6,7-dinitroquinoxaline-2,3Dione]", "values": [{"measurement": "response duration before (t1-t5) vs after (t16-t20) drug wash-in", "setting": "[2]", "result": "no statistically significant difference; also recorded: no marked change"}, {"measurement": "response amplitude before (t1-t5) vs after (t16-t20) drug wash-in", "setting": "[2]", "result": "no statistically significant difference; also recorded: no marked change"}]}
{"molecule": "CC(=O)O[C@H]1C(=O)[C@@]2(C)[C@H]([C@H](OC(=O)c3ccccc3)[C@]3(O)C[C@H](OC(=O)[C@H](O)[C@@H](NC(=O)c4ccccc4)c4ccccc4)C(C)=C1C3(C)C)[C@]1(OC(C)=O)CO[C@@H]1C[C@@H]2O", "note": "[Paclitaxel]", "values": [{"measurement": "Neurotoxic dose", "setting": "[3]", "result": 0.1, "unit": "µM"}]}
{"molecule": "NC1=N[C@H](O)[C@H]2[C@H]3O[C@]4(O)O[C@@H]([C@@H](O)[C@@]2(N1)[C@@H]4O)[C@]3(O)CO", "note": "[TTX, tetrodotoxin]", "values": [{"measurement": "average response amplitude (peak-to-peak) after wash-in", "setting": "[2]", "result": 0.04, "unit": "μV"}, {"measurement": "effect on CAP / population response", "setting": "[2]", "result": "reversibly abolished; also recorded: completely abolished; also recorded: abolishment of population response"}, {"measurement": "time to complete abolishment of responses", "setting": "[2]", "result": "≤ 2", "unit": "min"}]}
{"molecule": "CC[C@]1(O)C[C@H]2CN(CCc3c([nH]c4ccccc34)[C@@](C(=O)OC)(c3cc4c(cc3OC)N(C=O)[C@H]3[C@@](O)(C(=O)OC)[C@H](OC(C)=O)[C@]5(CC)C=CCN6CC[C@]43[C@@H]65)C2)C1", "note": "[Vincristine]", "values": [{"measurement": "Neurotoxic dose", "setting": "[3]", "result": 0.1, "unit": "µM"}]}
{"molecule": "NGF: nerve growth factor", "values": [{"measurement": "direction of DRG neurite growth", "setting": "DRG neurites", "result": "grow preferentially toward NGF"}]}
{"molecule": "collagen", "values": [{"measurement": "amount of myelin formation", "setting": "[1]; 25 days, addition of collagen I and III", "result": "increased"}, {"measurement": "volume of neuronal outgrowth, cultures with vs without collagen", "setting": "[1]; 25 days, collagen-coated inserts, n=15-18 constructs", "result": "significantly higher volume; also recorded: significantly more neuronal growth"}, {"measurement": "amount of MBP-positive myelin", "setting": "[1]; 25 days, presence of collagen, FIG. 17B", "result": "increased"}, {"measurement": "amount of PO-positive myelin", "setting": "[1]; 25 days, presence of collagen, FIG. 18B", "result": "increased"}]}
{"molecule": "BDNF: brain-derived neurotrophic factor (protein, UniProt P23560 19-247, looked up) Neurotrophic factor BDNF …: APMKEANIRGQGGLAYPGVRTHGTLESVNGPKAGSRGLTSLADTFEHVIEELLDEDQKVRPNEENNKDADLYTSRVMLSSQVPLEPPLLFLLEEYKNYLDAANMSMRVRRHSDPARRGELSVCDSISEWVTAADKKTAVDMSGGTVTVLEKVPVSKGQLKQYFYETKCNPMGYTKEGCRGIDKRHWNSQCRTTQSYVRALTMDSKKRIGWRFIRIDTSCVCTLTIKRGR", "values": [{"measurement": "retinal ganglion cell axon extension", "setting": "Retinal explants", "result": "Observable retinal ganglion cell axon extension"}]}
{"molecule": "CNTF: ciliary neurotrophic factor (protein, UniProt P26441 1-200, looked up) Ciliary neurotrophic factor: MAFTEHSPLTPHRRDLCSRSIWLARKIRSDLTALTESYVKHQGLNKNINLDSADGMPVASTDQWSELTEAERLQENLQAYRTFHVLLARLLEDQQVHFTPTEGDFHQAIHTLLLQVAAFAYQIEELMILLEYKIPRNEADGMPINVGDGGLFEKKLWGLKVLQELSQWTVRSIHDLRFISSHQTGIPARGSHYIANNKKM", "values": [{"measurement": "retinal ganglion cell axon extension", "setting": "Retinal explants", "result": "Observable retinal ganglion cell axon extension"}]}
